This is an account of results in paper PMC5072831, “Novel Nuclear Factor-KappaB Targeting Peptide Suppresses β-Amyloid Induced Inflammatory and Apoptotic Responses in Neuronal Cells” (PLoS ONE, 2016).

Data set [1] has as its system NF-κΒ p65. The settings on record: ref [61]; cited from earlier work. From the text: There is increasing interest in developing disease modifying agents for neurodegenerative diseases based on molecular pathogenesis. […] As opposed to high throughput screening, computational design of interface peptide mimics followed by functional evaluation represe ...
The test system of data set [2] is caspase-3. Particulars: ref [70], [71]; cited from earlier work. An excerpt:
Multiple caspases including caspase-3 and caspase-9 are transcriptionally elevated in AD [66, 67].

Data set [3] deals with IL-6 mRNA. As to the kind of experiment: IL-6 mRNA in HFB by quantitative real-time PCR. The settings on record: Aβ1–42 exposure alone. Format: cell-based, human. Here is the method:
(§1) Primary HFB exposed to Aβ1–42 and treated with GA or CP as above was harvested at the end of 24h. Total cellular RNA was isolated using Qiagen kit (Invitrogen, Carlsbad, CA) following manufacturer's protocol. Total RNA (2–4 μg) was reverse transcribed using iScript cDNA synthesis kit (Biorad, CA). The concentration of the cDNA was measured at 260 and 280 nm by the Gensys5 model UV-visible spectrophotometer (Thermoelectronic Corp.,CA). Real-time PCR was performed by using the SYBR green/ROX qPCR master mix (SABiosciences, Frederick, MD) according to manufacturer's recommendations on the CFX96 Touch™ Real-Time PCR Detection System (Biorad laboratories, Hercules, California, USA). Each reaction contains 2×12.5 μl of SYBR green Master Mix, 1 μl of 10 μM of primers and 50 ng of the cDNA, to a total volume of 25 μl. The thermal cycling conditions included an initial denaturation step at 50°C for 2 min, 95°C for 3 min, 39 cycles at 95°C for 30 s, annealing temperature at 54°C for 30 s and extension at 72°C for 30s. The primers are F-GAPDH-5′-[…]-3′; R-GAPDH:5′-G […]-3′(102bp); F-IL-1β:5′-[…]-3′; R-IL-1β:5′[…]-3′ (89 bp); F-IL-6:5′-[…] […] The difference in each gene-specific threshold between the samples from vehicle treated and GA or CP treated cells was determined to obtain the relative change in the specific mRNA. The magnitude of change in the mRNA was expressed as 2^ΔΔCt. […]
A general note: Real-time PCR tracks product formation cycle by cycle.

The subject of data set [4] is activated p65 NF-κΒ subunit. The data set is described as follows: NF-κB assay, nuclear p65 DNA binding (TransAM) in HFB. The settings on record: HFB exposed to Aβ1–42, 4 h, 5μg nuclear extract, TransAM ELISA; average+/-SD from two experiments. In kind it is cell-based, human. How it is done: (§2) Primary HFB exposed to Aβ1–42 and treated with GA or CP as above was harvested at the end of 4h. Nuclear and cytoplasmic fractions were extracted using the CelLytic™ NuCLEAR™ Extraction Kit (Sigma) following manufacturer’s protocol. Five microgram of nuclear extracts was incubated in a 96-well plate coated with oligonucleotides containing the NF-κΒ consensus nucleotide sequence (5’-[…]-3’). The activated NF-κΒ bound to DNA was detected by anti-p65 antibody followed by a peroxidase coupled secondary antibody and substrate using the TransAM kit protocol (Active Motif). Nuclear extracts of Raji cells was used as the positive control.
Fig 6 Effect of GILZ analog (GA) treatment on human fetal brain cells (HFB): (A,B): Select GA decrease metabolic activity in Aβ1–42 exposed HFB. […] Cytoplasmic extracts of cells collected at 24h was assessed for viability by CTG assay. […] HFB cells were cultured as above and culture medium collected at 24hrs was assessed for pro-inflammatory (IL-1β, IL-6 and IL-17) (C, D, E and F) and anti-inflammatory (TGF-β) (G) cytokines. […] The p65 DNA binding activity was calculated as the ratio of absorbance from Aβ1–42 stimulated cells to that of unstimulated cells. […]
We measured nuclear p65 using activated NF-κΒ specific ELISA and calculated the p65 DNA binding activity as the ratio of absorbance form Aβ1–42 stimulated cells to that of unstimulated cells. […]
On the technique in general: An ELISA detects its analyte on a solid surface through an enzyme-linked reagent.

Data set [5] has as its system Caspase-9 mRNA. The data set is described as follows: Caspase-9 mRNA in HFB by quantitative real-time PCR. In kind it is cell-based, human. The settings on record: Aβ1–42 exposure alone. Here is the method:
as §1

Data set [6] relates to nuclear p50. As to the kind of experiment: Nuclear p50 in HFB. Format: cell-based, human. The settings on record: HFB exposed to Aβ1–42. How it is done:
as §2
We measured nuclear p65 using activated NF-κΒ specific ELISA and calculated the p65 DNA binding activity as the ratio of absorbance form Aβ1–42 stimulated cells to that of unstimulated cells. […] There was a trend towards decreased nuclear p65 in Aβ1–42 exposed cells treated with GA-1 (6.13+/-1.3) and GA-2 (6.7+/-1.5) as compared to untreated cells (14.75+/-3.5). Nuclear p65 of Aβ1–42 exposed cells treated with CP-1, CP-2 and CP-3 measured 6.8+/-3.9, 10.2+/-2.9 and 10.1+/-3.7 respectively (Fig 6H). […] Although we observed slightly elevated nuclear p50 in Aβ1–42 (6.15+/-1.2) than in unexposed cells (0.5+/-2.7), no difference was observed between GA peptide of CP treated cells and untreated cells (data not shown).

Data set [7] has as its system Caspase-3 mRNA. The data set is described as follows: Caspase-3 mRNA in HFB by quantitative real-time PCR. Particulars: Aβ1–42 exposure alone. In kind it is cell-based, human. How it is done:
as §1

In data set [8] the test system is human fetal brain cells (HFB). The data set is described as follows: CTG viability in human primary mixed brain cultures (HFB). Format: cell-based. How it is done: HFB were prepared and cultured as described (S1 and S2 Docs). Briefly, cells were cultured in Neurobasal medium (Invitrogen) without phenol red supplemented with 1xB27, […], 1xantibiotic cocktail, 5ng/mL recombinant fibroblast growth factor 2 (bFGF) (Invitrogen), and 2μL/mL Normocin (InVivoGen, San Diego, CA, USA). Cells were counted and seeded onto poly-D-lysine (Sigma-Aldrich) coated 24-well plates (Corning, Lowell, MA, USA) at 1.5x10^5 cells per well and maintained at 37°C in a 5% CO2 incubator. Half media changes were performed every 4th day of culture and morphology was monitored via phase contrast microscopy. Culture medium was removed from cells on day 17 (DIV17) and replaced with Neurobasal medium with B27. […] Cells and conditioned media were harvested and stored for further analysis. Relative ATP concentration was measured using the CTG kit (Promega). Data is presented as ΔRLU = RLU of Aβ1–42 exposed cells–RLU unexposed cells. Conditioned media collected were assessed for specific cytokines using the OptEIA kits (BD Biosciences).

For data set [9], the system named is IL-1β mRNA. The data set is described as follows: IL-1β mRNA in HFB by quantitative real-time PCR. Format: cell-based, human. Particulars: Aβ1–42 exposure alone. How it is done: as §1
For data set [10] the following is noted: ref [67]; cited from earlier work.

Take `C=C1C(=O)[C@]23C[C@H]1C[C@H](OC(C)=O)[C@H]2[C@]1(C)[C@@H](OC(C)=O)C[C@H](O)C(C)(C)[C@H]1C(=O)[C@@H]3OC(C)=O` [adenanthin]: the “effect in AD models” value in [1] is “interact with NF-κΒ p65, suppress inflammation and cytotoxicity in AD models”.

For `COc1ccc2[nH]cc(CCNC(C)=O)c2c1` [melatonin], the “effect on Aβ-induced caspase-3 activity” value in data set [2] is listed as “suppress Aβ-induced caspase-3 activity”.

For the compound `Oc1ccc(/C=C/c2cc(O)cc(O)c2)cc1` [resveratrol], the “effect in AD models” value in data set [1] is “interact with NF-κΒ p65, suppress inflammation and cytotoxicity in AD models”.

For “Aβ1–42: Purified Aβ1–42 peptide (American Peptide company), used as stimulus”, in data set [3], the “IL-6 mRNA (in words)” value is “upregulation of mRNA for IL-1β and IL-6”. For the same compound, in data set [4], the “nuclear p65 DNA binding activity (ratio of absorbance, Aβ1–42 stimulated / unstimulated)” value is 14.75+/-3.5. For the same compound, the “caspase 9 mRNA (in words)” value in data set [5] is “upregulation of mRNA for caspase 3 and caspase 9”. Further, the “nuclear p50” value in [6] is 6.15+/-1.2. In addition, in data set [7], the “caspase 3 mRNA (in words)” value was “upregulation of mRNA for caspase 3”. The “average RLU of cultures exposed to Aβ1–42” value in data set [8] (lower end over different experiments) is on record as 6067.25+/-903.05; in data set [8] (upper end over different experiments) it was 11574.25+/- 4139.3. In addition, the “IL-1β mRNA (in words)” value in data set [9] is “upregulation of mRNA for IL-1β”.

For the compound oncocin, the “influx into CNS and distribution in brain parenchyma” value in data set [10] is “significant influx into CNS and distribution within the brain parenchyma”.
